pKi: −log10 of the molar value.
Experiments:
Experiment in all cases: stopped-flow CO2 hydrase assay
Assay type in all cases: biochemical
Conditions in all cases: CO2 […], […] Hepes pH […] Na2SO4, […] h preincubation at room temperature
hCA XII = molecular target: T1, hCA XII (Homo sapiens, UniProt O43570)
T1 construct: gene CA12; recombinant, obtained in-house
Excerpt: stopped-flow CO2 hydrase assay on hCA XII

hCA I = molecular target: T2, hCA I (Homo sapiens, UniProt P00915)
T2 construct: gene CA1; recombinant, obtained in-house
Excerpt: stopped-flow CO2 hydrase assay on hCA I

hCA IX = molecular target: T3, hCA IX (Homo sapiens, UniProt Q16790)
T3 construct: gene CA9; recombinant, obtained in-house
Excerpt: stopped-flow CO2 hydrase assay on hCA IX

hCA II = molecular target: T4, hCA II (Homo sapiens, UniProt P00918)
T4 construct: gene CA2; recombinant, obtained in-house
Excerpt: stopped-flow CO2 hydrase assay on hCA II

T2 sequence (P00915 2-261): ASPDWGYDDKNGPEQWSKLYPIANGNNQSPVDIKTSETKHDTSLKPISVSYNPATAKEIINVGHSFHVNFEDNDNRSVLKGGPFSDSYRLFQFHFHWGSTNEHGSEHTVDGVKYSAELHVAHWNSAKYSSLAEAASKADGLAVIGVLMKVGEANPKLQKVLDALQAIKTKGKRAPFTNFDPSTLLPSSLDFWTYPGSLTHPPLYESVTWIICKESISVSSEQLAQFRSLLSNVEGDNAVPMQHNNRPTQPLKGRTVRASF
T1 sequence (O43570 25-354): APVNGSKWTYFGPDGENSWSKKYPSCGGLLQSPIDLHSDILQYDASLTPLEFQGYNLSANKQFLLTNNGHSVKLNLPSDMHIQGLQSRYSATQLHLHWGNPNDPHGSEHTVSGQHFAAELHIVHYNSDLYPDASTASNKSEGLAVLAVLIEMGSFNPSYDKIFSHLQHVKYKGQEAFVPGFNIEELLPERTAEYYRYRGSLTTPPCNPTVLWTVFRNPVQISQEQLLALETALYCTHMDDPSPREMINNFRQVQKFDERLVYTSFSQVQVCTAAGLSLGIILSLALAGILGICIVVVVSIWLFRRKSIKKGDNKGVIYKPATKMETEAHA

pKi (hCA XII) | pKi (hCA I) | pKi (hCA IX) | pKi (hCA II) | Substance
8.72 | 8.44 | 7.38 | 8.03 | [{(η^5-C5H4)-C(CH3)=N-N(H)-C6H4-4-SO2NH2}]FeCp [3b]
8.48 | 6.57 | 6.66 | 7.95 | [{(η^5-C5H4)-C(CH3)=N–N(H)-C6H4-4-SO2NH2}]Mn(CO)3 [2b]
8.42 | 8.43 | 7.60 | 8.01 | [{(η^5-C5H4)-C(CH3)=N–N(H)-C6H4-4-SO2NH2}]re(CO)3 [1b]
8.31 | 7.88 | 7.30 | 8.77 | [{(η^5-C5H4)-CH=N–N(H)-C6H4-4-SO2NH2}]FeCp [3a]
8.51 | 8.23 | 8.68 | 8.09 | [{(η^5-C5H4)-CH=N–N(H)-C6H4-4-SO2NH2}]Mn(CO)3 [2a]
7.61 | 8.12 | 6.24 | 7.65 | [{(η^5-C5H4)-CH=N–N(H)-C6H4-4-SO2NH2}]re(CO)3 [1a]
